Measurements published in patent US11535599B2, “Benzisoxazole derivative” (Sumitomo Pharma Co., Ltd., priority 2020, dated 2022).

What was measured:
[1] = test system: cerebellar Purkinje cell; test: Effect for inhibiting neuronal firing in mouse brain slice (patch-clamp); assay type: cell-based; conditions: 500 μmol/L
Procedure: (§1) The action of the present compound for regulating the voluntary firing frequency in subthalamic nucleus neuron and cerebellar Purkinje cell was measured by patch-clamp method in mouse brain slice. […] As stimulus protocol, a current of +200 pA or +400 pA was added thereto for 400 milliseconds and the raised action potential was recorded. […] The stimulus-controlled and digitized action potential was recorded with Clampex software (Version 10.2) (all instruments are from Molecular Device Corporation, Union City, Calif., USA). […] In the measurement after adding the compound of Example 13, the action potential was recorded after the record solution containing the compound of Example 13 was perfused for more than 10 minutes. In the analyses, the percentage of the spike firing frequency (Hz) for the current stimulation after adding the compound of Example 13, per the spike firing frequency (Hz) for the current stimulation before adding the compound of Example 13, was calculated, which was defined as a change rate of spike firing frequency in each cell.

[2] = test system: subthalamic nucleus neuron; test: as above; assay type: cell-based; conditions: 500 μmol/L
Procedure: as §1

C[C@H](c1noc2ccccc12)S(N)(=O)=O [Example 13, (1R)-1-(1,2-benzoxazol-3-yl)ethane-1-sulfonamide]
spike firing frequency in cerebellar Purkinje cell [1]: significantly inhibited the spike firing frequency
spike firing frequency in subthalamic nucleus neuron [2]: significantly inhibited the spike firing frequency
